The text below walks through data of patent publication EP0950398A2, “Use of esters as dispersants or solvents in sunscreens and solar protection pigments” (Henkel Kommanditgesellschaft auf Aktien, priority 1998, dated 1999).

The data set can be described thus: UV absorption of 5 ppm Octylmethoxy Cinnamate dissolved in different oil bodies (absorption increase). It counts as physicochemical. Particulars: for Absorptionssteigerung: 5 ppm Octylmethoxy Cinnamate in the oil body, 1-cm cuvette, 308 nm, absorption in Mineralöl taken as 100 %. From the text:
Zur Bestimmung der Absorptionssteigerung wurden Lösungen von 5 ppm Octylmethoxy Cinnamate in verschiedenen Ölkörpern hergestellt und die UV-Absorption in einer 1-cm Küvette bei einer Wellenlänge von 308 nm bestimmt. Die Absorption in Mineralöl wurde dazu als 100 % angenommen und alle übrigen Absorptionen dazu ins Verhältnis gesetzt. Des weiteren wurden verschiedene UV-Filter (OT = Octyl Triazone; BMDBM = Butyl Methoxydibenzoylmethane; B3 = Benzophenone-3 und 4MBC = 4-Methylbenzyliden Camphor) in den Ölkörpern in der Wärme gelöst und die Löslichkeit bei 15°C bestimmt. Die Ergebnisse sind in Tabelle 1 zusammengefaßt. Tabelle 1

In the case of `CCCCOC(=O)CCCCC(=O)OCCCC` [Dibutyl Adipate], the Absorptionssteigerung was found to be 117%. For the same molecule, where the note is “result in words, comparison of all tested oil bodies”, the “UV-Absorption unterstützt” value was “am stärksten”. `CCCCCCCCOCCCCCCCC` [Dicaprylyl Ether, reference compound] returned an Absorptionssteigerung of 105%.
